Experimental data from publication PMC8979682, “Synthesis, Antioxidant, and Antidiabetic Activities of Ketone Derivatives of Succinimide” (Evidence-based Complementary and Alternative Medicine : eCAM, 2022).
Values after ≈ are worked out from the molar mass of the structure shown.

Tests used:
[1] = test system: α-amylase; experiment: in vitro α-amylase inhibition; type: biochemical
Method: The starch solution was added, following incubation of the mixture, and the reaction mixture thus prepared was kept in water bath at 100°C for some time. Microplate reader measured the intensity of the color at 656 nm. Following formula was used to determine percentage inhibition:(3) percent inhibition=absorbancecontrol−absorbancesample/absorbancecontrol×100.

[2] = test system: α-glucosidase; experiment: in vitro α-glucosidase inhibition; type: biochemical
Method: For in vitro α-glucosidase activity, samples were prepared by adding glucopyranoside to phosphate buffer solvent, and different concentrations of the synthesized compounds (31.25, 62.5, 125, 250, and 500 µg/ml), respectively, were added to this solution and then the enzyme glucosidase in distilled water (0.5 µg/ml) was also added to the above mixture. The reaction mixture thus prepared was subjected to incubation at 37°C for 20 minutes. The reaction was halted by adding HCl after incubation of the mixture. The intensity of the color was determined at 540 nm by spectrophotometer, and the formula given below was used for the determination of percent inhibition:(2) percent inhibition=absorbancecontrol−absorbancesample/absorbancecontrol×100.

[3] = DPPH scavenging activity; type: biochemical
Method: The antioxidant assay of the synthesized compounds was conducted following the previously reported method. A freshly prepared DPPH solution (50 μL of 1.0 × 10^−3 M) was added in methyl alcohol. Methanol was used as a control in this experiment. The prepared mixture was subjected to incubation at 25°C for 30 min. A decrease in the DPPH free radical concentration was calculated using a spectrophotometer at a wavelength of 517 nm. After incubation ascorbic acid was used as a positive control. The antioxidant activity was determined as a percent (%) of inhibition using the formula given:(1) percent inhibition=absorbancecontrol−absorbancesample/absorbancecontrol×100.

[4] = ABTS scavenging activity; type: biochemical
Method: For the determination of the antioxidant activity of the synthesized compounds, the previously reported method for ABTS scavenging activity was used with slight modification. The stock solution of 2.4 mM of potassium per sulfate solution and 7 mM ABTS solution was prepared by mixing them in equal volumes for 16 h. The stock solution thus prepared was diluted using methyl alcohol to give absorption of 0.7 ± 0.02 units when studied at the wavelength of 734 nm using a spectrophotometer. Fresh ABTS solution was prepared for each ABTS scavenging assay. About 150 μL of the ABTS working solution was added to 50 μL of synthesized compounds and kept in darkness for 10 min. […] Methanol was used as blank, and standard ascorbic acid was run at the same time. The absorbance was calculated utilizing a microplate reader at 734 nm.

[5] = test system: mice; experiment: oral glucose tolerance test (OGTT); type: in vivo; conditions: glucose 2 g/kg orally
Method: To perform OGTT mice fasted overnight were used including both control and treated mice. Glucose was administered orally at the dose of 2 g/kg against glibenclamide as standard drug. After administration of glucose, blood glucose level was calculated at time intervals of 0, 30, 60, and 120 min for assessment of the impact of exogenously given D-glucose on treated mice. OGTT was carried out 5 days before the completion of the study.
To perform OGTT, mice fasted overnight were used including both control and treated mice. Glucose was administered orally at the dose of 2 g/kg against glibenclamide as a standard drug. After administration of glucose, blood glucose level was calculated at time intervals of 0, 30, 60, and 120 min for assessment of the impact of exogenously given D-glucose on treated mice.

[6] = test system: diabetic mice (by alloxan); experiment: antidiabetic activity in diabetic mice (by alloxan); type: in vivo
Method: Alloxan was used for the induction of diabetes mellitus according to reported procedure. Recently prepared Alloxan (ALX) was injected intraperitoneally to animals, fasting for 16 h, at a single dose of (150 mg/kg). […] Only diabetic animals, having random blood glucose level more than 200 mg/dl, were selected for studies. All the experimental procedure were approved from the ethical committee department of pharmacy, University of Swabi via letter No; UOS-06/2021.
A total of 30 animals were used to determine the hypoglycemic effect of the synthesized derivatives of succinimide. The experimental animals were segregated in six groups […], having five (5) animals in each group. Group I was designated as normal group and was given normal saline I/P only. Group II was given Tween 80, and Group III was given standard drug (glibenclamide) after the induction of diabetes. Group IV, Group V, and Group VI were given the various doses of synthesized compounds, respectively. […]

C[C@H]1O[C@H](O[C@H]2[C@H](O)[C@@H](O)[C@@H](O[C@H]3[C@H](O)[C@@H](O)C(O)O[C@@H]3CO)O[C@@H]2CO)[C@H](O)[C@@H](O)[C@@H]1N[C@H]1C=C(CO)[C@@H](O)[C@H](O)[C@H]1O (stereo partly drawn) [Acarbose, reference compound]
% inhibitions (α-amylase) ([1]; 31.25 µg/ml): 63.62 ± 0.58% | % inhibitions (α-amylase) ([1]; 62.50 µg/ml): 69.42 ± 1.55% | % inhibitions (α-amylase) ([1]; 125 µg/ml): 76.20 ± 0.49% | % inhibitions (α-amylase) ([1]; 250 µg/ml): 82.47 ± 0.71% | % inhibitions (α-amylase) ([1]; 500 µg/ml): 87.75 ± 0.42% | % inhibitions (α-glucosidase) ([2]; 31.25 µg/ml): 67.90 ± 0.45% | % inhibitions (α-glucosidase) ([2]; 62.50 µg/ml): 73.00 ± 0.30% | % inhibitions (α-glucosidase) ([2]; 125 µg/ml): 80.90 ± 0.60% | % inhibitions (α-glucosidase) ([2]; 250 µg/ml): 86.45 ± 0.90% | % inhibitions (α-glucosidase) ([2]; 500 µg/ml): 92.23 ± 0.22%

O=C1O[C@H]([C@@H](O)CO)C(O)=C1O [Ascorbic acid, reference compound]
IC50 (DPPH) [3]: 7.10 µg/mL (≈ 40.3 µM) | (%) DPPH inhibitions ([3]; 31.25 µg/ml): 68.42 ± 0.43% | (%) DPPH inhibitions ([3]; 62.50 µg/ml): 73.22 ± 1.28% | (%) DPPH inhibitions ([3]; 125 µg/ml): 79.52 ± 0.66% | (%) DPPH inhibitions ([3]; 250 µg/ml): 84.56 ± 0.45% | (%) DPPH inhibitions ([3]; 500 µg/ml): 90.65 ± 1.32% | IC50 (ABTS) [4]: 6.84 µg/mL (≈ 38.8 µM) | (%) ABTS inhibitions ([4]; 31.25 µg/ml): 63.89 ± 0.20% | (%) ABTS inhibitions ([4]; 62.50 µg/ml): 75.45 ± 0.90% | (%) ABTS inhibitions ([4]; 125 µg/ml): 77.61 ± 0.43% | (%) ABTS inhibitions ([4]; 250 µg/ml): 82.40 ± 0.20% | (%) ABTS inhibitions ([4]; 500 µg/ml): 87.08 ± 0.47%

O=C1CCCCC1C1CC(=O)N(c2ccccc2)C1=O (stereo not drawn) [BW1, (2-Oxocyclohexyl)-1-Phenylpyrrolidine-2,5-Dione]
IC50 (α-amylase) [1]: 13.90 µg/mL (≈ 51.2 µM) | % inhibitions (α-amylase) ([1]; 31.25 µg/ml): 57.40 ± 0.40^∗∗∗ % | % inhibitions (α-amylase) ([1]; 62.50 µg/ml): 65.08 ± 0.66^∗∗∗ % | % inhibitions (α-amylase) ([1]; 125 µg/ml): 71.78 ± 0.44^∗∗∗ % | % inhibitions (α-amylase) ([1]; 250 µg/ml): 75.32 ± 0.40^∗∗∗ % | % inhibitions (α-amylase) ([1]; 500 µg/ml): 81.60 ± 0.00^∗∗∗ % | OGTT blood glucose, 0 minutes [5]: 165.8 mg/dL | OGTT blood glucose, 30 minutes [5]: 194.4 mg/dL | OGTT blood glucose, 60 minutes [5]: 211.8 mg/dL | OGTT blood glucose, 120 minutes [5]: 160.3 mg/dL | IC50 (α-glucosidase) [2]: 10.49 µg/mL (≈ 38.7 µM) | % inhibitions (α-glucosidase) ([2]; 31.25 µg/ml): 65.80 ± 0.90^ns % | % inhibitions (α-glucosidase) ([2]; 62.50 µg/ml): 70.40 ± 0.20^ns % | % inhibitions (α-glucosidase) ([2]; 125 µg/ml): 76.58 ± 0.63^ns % | % inhibitions (α-glucosidase) ([2]; 250 µg/ml): 83.45 ± 0.90^ns % | % inhibitions (α-glucosidase) ([2]; 500 µg/ml): 89.08 ± 1.04^ns % | Change in body weight ([6]; dose 31.25 μg/kg): +2.3 Gm | Blood glucose level, 0 day ([6]; dose 31.25 μg/kg): 418 mg/dL | Blood glucose level, 4th day ([6]; dose 31.25 μg/kg): 408 mg/dL | Blood glucose level, 7th day ([6]; dose 31.25 μg/kg): 399 mg/dL | Blood glucose level, 10th day ([6]; dose 31.25 μg/kg): 382 mg/dL | Blood glucose level, 15th day ([6]; dose 31.25 μg/kg): 375 mg/dL | Change in body weight ([6]; dose 62.5 μg/kg): +4.3 Gm | Decrease in blood glucose after 15 days ([6]; dose 62.5 μg/kg): 34 mg/dL | Blood glucose level, 0 day ([6]; dose 62.5 μg/kg): 380 mg/dL | Blood glucose level, 4th day ([6]; dose 62.5 μg/kg): 371 mg/dL | Blood glucose level, 7th day ([6]; dose 62.5 μg/kg): 365 mg/dL | Blood glucose level, 10th day ([6]; dose 62.5 μg/kg): 351 mg/dL | Blood glucose level, 15th day ([6]; dose 62.5 μg/kg): 346 mg/dL | Change in body weight ([6]; dose 125 μg/kg): +4.1 Gm | Decrease in blood glucose after 15 days ([6]; dose 125 μg/kg): 49 mg/dL | Blood glucose level, 0 day ([6]; dose 125 μg/kg): 443 mg/dL | Blood glucose level, 4th day ([6]; dose 125 μg/kg): 431 mg/dL | Blood glucose level, 7th day ([6]; dose 125 μg/kg): 413 mg/dL | Blood glucose level, 10th day ([6]; dose 125 μg/kg): 401 mg/dL | Blood glucose level, 15th day ([6]; dose 125 μg/kg): 394 mg/dL | Change in body weight ([6]; dose 250 μg/kg): +5.7 Gm | Decrease in blood glucose after 15 days ([6]; dose 250 μg/kg): 207 mg/dL | Blood glucose level, 0 day ([6]; dose 250 μg/kg): 421 mg/dL | Blood glucose level, 4th day ([6]; dose 250 μg/kg): 397 mg/dL | Blood glucose level, 7th day ([6]; dose 250 μg/kg): 345 mg/dL | Blood glucose level, 10th day ([6]; dose 250 μg/kg): 219 mg/dL | Blood glucose level, 15th day ([6]; dose 250 μg/kg): 214 mg/dL | Change in body weight ([6]; dose 500 μg/kg): +7.1 Gm | Decrease in blood glucose after 15 days ([6]; dose 500 μg/kg): 121 mg/dL | Blood glucose level, 0 day ([6]; dose 500 μg/kg): 412 mg/dL | Blood glucose level, 4th day ([6]; dose 500 μg/kg): 388 mg/dL | Blood glucose level, 7th day ([6]; dose 500 μg/kg): 372 mg/dL | Blood glucose level, 10th day ([6]; dose 500 μg/kg): 312 mg/dL | Blood glucose level, 15th day ([6]; dose 500 μg/kg): 291 mg/dL | IC50 (DPPH) [3]: 10.84 µg/mL (≈ 40 µM) | (%) DPPH inhibitions ([3]; 31.25 µg/ml): 62.03 ± 0.77^∗∗∗ % | (%) DPPH inhibitions ([3]; 250 µg/ml): 77.23 ± 0.96^∗∗∗ % | (%) DPPH inhibitions ([3]; 500 µg/ml): 85.83 ± 0.47^∗∗ % | IC50 (ABTS) [4]: 9.40 µg/mL (≈ 34.6 µM) | (%) ABTS inhibitions ([4]; 31.25 µg/ml): 55.67 ± 0.32^∗∗∗ % | (%) ABTS inhibitions ([4]; 62.50 µg/ml): 66.16 ± 0.16^∗∗∗ % | (%) ABTS inhibitions ([4]; 125 µg/ml): 70.62 ± 0.25^∗∗∗ % | (%) ABTS inhibitions ([4]; 250 µg/ml): 73.36 ± 0.84^∗∗∗ % | (%) ABTS inhibitions ([4]; 500 µg/ml): 78.35 ± 0.23^∗∗∗ %

COc1ccc(Cl)cc1C(=O)NCCc1ccc(S(=O)(=O)NC(=O)NC2CCCCC2)cc1 [Glibenclamide, reference compound]
OGTT blood glucose, 0 minutes [5]: 151.5 mg/dL | OGTT blood glucose, 30 minutes [5]: 176.7 mg/dL | OGTT blood glucose, 60 minutes [5]: 214.3 mg/dL | OGTT blood glucose, 120 minutes [5]: 140.5 mg/dL | Change in body weight ([6]; dose 0.5 (μg/kg)): +10.3 Gm | Decrease in blood glucose after 15 days ([6]; dose 0.5 (μg/kg)): 275 mg/dL | Blood glucose level, 0 day ([6]; dose 0.5 (μg/kg)): 473 mg/dL | Blood glucose level, 4th day ([6]; dose 0.5 (μg/kg)): 303 mg/dL | Blood glucose level, 7th day ([6]; dose 0.5 (μg/kg)): 257 mg/dL | Blood glucose level, 10th day ([6]; dose 0.5 (μg/kg)): 212 mg/dL | Blood glucose level, 15th day ([6]; dose 0.5 (μg/kg)): 198 mg/dL
